We go through 1 compound from paper PMC6934184, “Selective DNA-PKcs inhibition extends the therapeutic index of localized radiotherapy and chemotherapy” (The Journal of Clinical Investigation, 2019).

In this assay the target is T1, PRKCZ (PKC zeta) (Homo sapiens, UniProt Q05513).
T1 construct: purchased Thermo Fisher Scientific (Life Technologies) SelectScreen
The assay can be described thus: SelectScreen Z'LYTE. Format: biochemical. In a few lines:
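SelectScreen broad panel; activity (Z'LYTE, Adapta) plus binding formats. ATP: Km app for CSF1R Z'LYTE; 10 for CAMK1 Adapta. Readout = % per kinase.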

T1 sequence (Q05513 whole entry): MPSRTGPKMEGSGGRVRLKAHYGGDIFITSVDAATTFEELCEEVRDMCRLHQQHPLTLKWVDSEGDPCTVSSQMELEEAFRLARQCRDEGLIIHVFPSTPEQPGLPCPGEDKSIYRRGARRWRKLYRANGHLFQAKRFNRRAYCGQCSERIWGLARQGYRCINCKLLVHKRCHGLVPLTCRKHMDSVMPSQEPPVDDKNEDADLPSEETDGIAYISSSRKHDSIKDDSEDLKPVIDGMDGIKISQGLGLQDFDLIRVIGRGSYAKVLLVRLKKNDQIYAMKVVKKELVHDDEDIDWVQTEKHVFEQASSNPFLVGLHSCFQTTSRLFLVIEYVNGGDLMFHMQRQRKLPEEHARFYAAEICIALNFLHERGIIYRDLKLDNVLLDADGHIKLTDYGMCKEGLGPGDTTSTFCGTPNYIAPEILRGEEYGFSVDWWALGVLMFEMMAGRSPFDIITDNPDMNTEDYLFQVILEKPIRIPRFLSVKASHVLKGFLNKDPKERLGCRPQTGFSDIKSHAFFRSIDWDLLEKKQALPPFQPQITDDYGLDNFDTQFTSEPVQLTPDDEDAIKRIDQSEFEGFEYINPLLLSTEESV

In turn, `CN(C(=O)CN1CCOCC1)c1ccc2sc3c(-c4cccc5c(=O)cc(N6CC7CCC(C6)O7)oc45)cccc3c2c1` [NU5455] yielded an inhibition at 1 µM of 4.7%.
